Assay results taken from patent publication US12534514B2, “Biological and synthetic molecules inhibiting respiratory syncytial virus infection” (Fraunhofer-Gesellschaft zur Förderung der angewandten …, priority 2019, dated 2026).
Square brackets hold non-standard residues; d marks the D form. Tyr(3,5-I2) = N[C@@H](Cc1cc(I)c(O)c(I)c1)C(=O)O; Chg = N[C@H](C(=O)O)C1CCCCC1; Cpa = not defined here

Experiments:
[1] = system: RSV (ATCC VR-26—Long strain); experiment: RSV plaque reduction assay on human epithelial cells (HEp-2); type: cell-based
Experimental: FIG. 1: Scheme of the used inhibition experiments. RSV-plaque reduction assay on human epithelial cells (HEp-2). HEp-2 cells were seeded in 96-well plate 24 h prior to infection (left). Next day, cells were infected with RSV (middle, white arrow). Simultaneously, peptides at concentrations of 20 μM were added to the cells (middle, black arrow). The inhibitory activity was determined 48 post infection by counting viral plaques after immunocytochemical staining using RSV-specific monoclonal antibody (right, black-checked arrow).
The designed peptides were synthesized and screened for their inhibitory activity against RSV in a cell culture-based plaque reduction assay as illustrated in FIG. 1. In detail, Anti-RSV activity was assessed in plaque reduction assay as follows: HEp-2 cells were seeded in a 96-well plate 24 h prior to infection. […] The inhibitory activity was determined 48 h post infection by counting viral plaques after immunocytochemical staining using RSV-specific monoclonal antibody.
Anti-RSV activity was assessed in plaque reduction assay. […] The inhibitory activity was determined 48 h post infection by counting viral plaques after immunocytochemical staining using RSV-specific antibody.
In detail, anti-RSV activity was assessed in plaque reduction assay. […] Viral plaques were counted after immunocytochemical staining using RSV-specific antibody at 48 h after infection. […]

active RSV = experiment: ELISA binding of DNA-peptide construct to RSV; conditions: peptides coupled to DNA; FIG. 6B
Source text: FIG. 6: Binding of novel DNA-Peptide construct to RSV. […] The single compounds are not in a representative scale. TMB=3,3′,5,5′-Tetramethylbenzidine, HRP=Horseradish peroxidase. […] “Only Anti-RSV antibody” and “Anti-RSV antibody+RSV” represent internal ELISA controls and lack components described in FIG. 6A. The other three samples have all components described in FIG. 6A. Each bar results from the mean values of triplicates±SD.
Binding of newly developed peptides 6 (Ac-[Chg][Cpa]VSTT[Tyr3,5-I2]LPHYFDN-NH2) and 12 (Ac-[Chg][Nle][Chg]STTYLPHYFDN-NH2) to active RSV was verified by enzyme-linked immunosorbent assay (FIG. 6).
FIG. 6A illustrates the scheme of the used ELISA. It has to be noted that the single compounds are not in a representative scale. […] Unspecific binding of RSV and/or RSV-antibody to neutravidin was excluded by using the two other controls.

Substance: LVVSTTYLPHYFDN (Ac-LVVSTTYLPHYFDN-NH2)
- inhibition of infection with RSV on human epithelial cells ([1]; concentration of 20 μM, RSV Long, 48 h post infection, FIG. 3B): > 50%
- inhibition of infection with RSV on human epithelial cells (screen of truncated peptides, FIG. 2) ([1]; peptides at 20 μM added simultaneously with RSV, plaques counted 48 h post infection): able to inhibit infection with RSV

Substance: Ac-[Chg][Nle][Chg]STTYLPHYFDN-NH2 (XXXSTTYLPHYFDN; HELM PEPTIDE1{[ac].[O=C([C@@H](N[*:1])C1CCCCC1)[*:2]].[Nle].[O=C([C@@H](N[*:1])C1CCCCC1)[*:2]].S.T.T.Y.L.P.H.Y.F.D.N.[am]}$$$$V2.0; SMILES CCCC[C@H](NC(=O)[C@@H](NC(C)=O)C1CCCCC1)C(=O)N[C@H](C(=O)N[C@@H](CO)C(=O)N[C@H](C(=O)N[C@H](C(=O)N[C@@H](Cc1ccc(O)cc1)C(=O)N[C@@H](CC(C)C)C(=O)N1CCC[C@H]1C(=O)N[C@@H](Cc1c[nH]cn1)C(=O)N[C@@H](Cc1ccc(O)cc1)C(=O)N[C@@H](Cc1ccccc1)C(=O)N[C@@H](CC(=O)O)C(=O)N[C@@H](CC(N)=O)C(N)=O)[C@@H](C)O)[C@@H](C)O)C1CCCCC1) [peptide 12]
- binding to active RSV (ELISA) (active RSV): verified

Substance: Ac-[Chg][Cpa]VSTT[Tyr3,5-I2]LPHYFDN-NH2 (Ac-[Chg][Cpa]VSTT[Tyr(3,5-I2)]LPHYFDN-NH2; reading uncertain; also: printed as Ac-[Chg][Cpa]VSTT[Tyr3,5-I2]LPHYFDN-NH2) [peptide 6]
- binding to active RSV (ELISA) (active RSV): verified
